Assay results as given in US20250057917A1, “COMPOSITION AND METHODS FOR TREATING RADIATION INDUCED INJURY” (Xequel Bio, Inc., priority 2023, published 2025).
Like-named read-outs stand apart in the source and are kept apart here. The star is where a group is joined. Biotin = O=C1N[C@H]2[C@H](CS[C@H]2CCCCC(=O)*)N1; Ahx = NCCCCCC(=O)O

Assays:
keratinocyte [1] = conditions: aCT1 treatment, Student's t-test p<0.0001, n=8, FIG. 9A
Description: (§1) Student's t-test, *p<0.0001; n=8; mean±SEM. […] Student's t-test, *p<0.0018; n=3; mean±SEM.

keratinocyte [2] = conditions: aCT1 treatment, Student's t-test p<0.0018, n=3, FIG. 9B
Description: as §1

Substance: {Biotin-Ahx}-RQPKIWFPNRRKPWKKRPRPDDLEI-OH [aCT1]
- keratinocyte proliferation (keratinocyte [1]): an increase in keratinocyte proliferation
- keratinocyte proliferation (keratinocyte [1]; listed as aCT1 peptide): accelerated keratinocyte migration and proliferation
- keratinocyte migration (keratinocyte [2]): an increase in keratinocyte migration
- keratinocyte migration (keratinocyte [2]; listed as aCT1 peptide): accelerated keratinocyte migration and proliferation
